Data reported in patent US10562912B2 (C&C Research Laboratories, priority 2013, dated 2020).

Experiments:
Format in all cases: cell-based
STAT3 = target: T1, STAT3 (Homo sapiens, UniProt P40763); test: STAT3 reporter gene assay (luciferase), LNCaP stable cell line (pSTAT3-TA-luc), IL-6 stimulation
T1 construct: plasmid pSTAT3-TA-luc), which contains a stably operating STAT3 promoter; endogenous in cells
Summary of the method: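 LNCaP cells stably carrying pSTAT3-TA-luc, in RPMI1640 with 3% DCC-FBS, were treated with compound and then stimulated with 10 ng/mL IL-6 for 24–48 h at 37 °C. Luciferase activity was measured in lysates. A parallel plate measured viability by CellTiter-Glo, with stimulated 0.1% DMSO wells as the positive control.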

LNCaP = test: Cell growth inhibition assay, prostate cancer cell line LNCaP (medium with 10 ng/mL IL-6); details: Homo sapiens, medium supplemented with 10 ng/mL of IL-6, 10,000 cells/well
MDA-MB-231 = test: Cell growth inhibition assay, breast cancer cell line MDA-MB-231; details: Homo sapiens; MDA-MB-231 breast cancer cell line, 5,000 cells/well
Protocol: The inhibitory effects of the compounds of the present invention against the growth of cancer cells were evaluated as shown below. The cancer cell lines including stomach cancer cell line (AGS), breast cancer cell lines (MDA-MB-231, MDA-MB-468, and BT-549), prostate cancer cell lines (LNCaP and DU-145), colon cancer cell line (HCT116), ovarian cancer cell line (SW626), liver cancer cell line (Hep3B), kidney cancer cell line (ACHN), lung cancer cell line (NCI-H23) and blood cancer cell lines (HEL92.1.7 and U266) were cultured under the protocol provided by each supplier. A medium supplemented with 10 ng/mL of IL-6 was used for LNCaP, a prostate cancer cell line, when treated with a drug. Each type of cells to be used in experiments were sub-cultured in a 96-well plate by counting the exact number of cells using Tali™ Image-based Cytometer (Life Technologies). In a 96-well plate, AGS, HCT116, and DU-145 were employed with 3,000 cells/well; NCI-H23, SW626, Hep3B, ACHN, BT-549, MDA-MB-231, HEL92.1.7, and U266 were employed with 5,000 cells/well; and LNCaP and MDA-MB-468 were employed with 10,000 cells/well. The cells were treated with the compounds listed in Examples which were diluted in various concentrations. Upon completion of the compounds treatment, AGS, HCT116, SW626, DU145, NCI-H23, Hep3B, ACHN, BT-549, LNCaP, HEL92.1.7, and U266 cells were cultured at 37° C. under 5% CO2 for from 72 to 96 hours, and MDA-MB-231 and MDA-MB-468 cells were cultured at 37° C. in air for from 72 to 96 hours. Subsequently, the cells were observed under microscope and drug precipitation and particular findings were investigated and recorded. And then, the 96-well plate was placed at room temperature for 30 minutes, added with 20 μL/well of CellTiter-Glo solution (Cat No. G7573, Promega) and shaken for 10 minutes, followed by being subjected to the measurement using PHERAstar™ microplate reader (BMG LABTECH) according to the supplier's general luminometer protocol. Wells where only culture liquid added without cell plating were used as a negative control, whereas wells where culture liquid containing 0.1% DMSO instead of the compounds listed in Examples were used as a positive control.

T1 sequence (P40763 whole entry): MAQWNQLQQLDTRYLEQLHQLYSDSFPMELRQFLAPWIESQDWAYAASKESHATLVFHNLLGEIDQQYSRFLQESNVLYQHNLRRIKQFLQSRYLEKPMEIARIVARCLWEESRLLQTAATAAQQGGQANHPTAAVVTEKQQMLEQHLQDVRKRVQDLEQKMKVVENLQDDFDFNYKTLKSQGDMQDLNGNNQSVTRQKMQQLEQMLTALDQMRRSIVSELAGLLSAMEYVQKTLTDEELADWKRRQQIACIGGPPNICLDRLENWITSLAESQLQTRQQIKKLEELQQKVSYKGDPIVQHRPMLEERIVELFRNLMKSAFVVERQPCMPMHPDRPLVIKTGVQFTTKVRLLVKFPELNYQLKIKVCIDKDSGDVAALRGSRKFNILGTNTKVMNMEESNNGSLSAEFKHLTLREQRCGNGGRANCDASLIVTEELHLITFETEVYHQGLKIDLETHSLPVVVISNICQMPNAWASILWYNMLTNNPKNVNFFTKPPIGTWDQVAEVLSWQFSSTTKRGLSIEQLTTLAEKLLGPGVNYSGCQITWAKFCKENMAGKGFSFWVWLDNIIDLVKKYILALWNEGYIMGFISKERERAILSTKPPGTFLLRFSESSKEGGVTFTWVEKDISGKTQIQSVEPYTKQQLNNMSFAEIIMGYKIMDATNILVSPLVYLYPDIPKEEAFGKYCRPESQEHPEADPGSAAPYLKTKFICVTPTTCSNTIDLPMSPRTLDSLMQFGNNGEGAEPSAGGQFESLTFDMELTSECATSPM

SMILES | IC50 (STAT3) | IC50 (LNCaP) | IC50 (MDA-MB-231)
Cc1c(C(=O)Nc2cccc(C(C)(C)c3ccc(F)cc3)c2)sc2cc(NS(C)(=O)=O)ccc12 [Example 51, N-(3-(2-(4-fluorophenyl)propan-2-yl)phenyl)-3-methyl-6-(methylsulfonamido)benzo[b]thiophene-2-carboxamide] | 0.55 µM | 3.5 µM | 0.62 µM
Cc1c(C(=O)Nc2cccc(C(C)(C)c3ccc(F)cc3)c2)sc2ccc(NS(C)(=O)=O)cc12 [Example 52, N-(3-(2-(4-fluorophenyl)propan-2-yl)phenyl)-3-methyl-5-(methylsulfonamido)benzo[b]thiophene-2-carboxamide] | 1.5 µM | 4.7 µM | 0.7 µM
C#Cc1cc(NC(=O)c2cc3ccc(NS(C)(=O)=O)cc3[nH]2)cc(C(C)(C)c2ccc(F)cc2)c1 [Example 107, N-(3-ethynyl-5-(2-(4-fluorophenyl)propan-2-yl)phenyl)-6-(methylsulfonamido)-1H-indole-2-carboxamide] | 0.42 µM | 1.2 µM | 0.29 µM
CC(C)(c1ccc(F)cc1)c1cccc(NC(=O)c2sc3cc(NS(C)(=O)=O)ccc3c2Cl)c1 [Example 110, 3-chloro-N-(3-(2-(4-fluorophenyl)propan-2-yl)phenyl)-6-(methylsulfonamido)benzo[b]thiophene-2-carboxamide] | 4.3 µM | > 10 µM | 3.3 µM
CS(=O)(=O)Nc1ccc2c(Cl)c(C(=O)Nc3cccc(-c4ccc(F)cc4F)c3)sc2c1 [Example 111, 3-chloro-N-(2′,4′-difluoro-[1,1′-biphenyl]-3-yl)-6-(methylsulfonamido)benzo[b]thiophene-2-carboxamide] | > 10 µM | > 10 µM | 6.3 µM
COc1cc(NS(C)(=O)=O)cc2cc(C(=O)Nc3cccc(-c4ccc(F)cc4F)c3)oc12 [Example 112, N-(2′,4′-difluoro-[1,1′-biphenyl]-3-yl)-7-methoxy-5-(methylsulfonamido)benzofuran-2-carboxamide] | 6.8 µM | 8.6 µM | > 10 µM
COc1cc(NS(C)(=O)=O)cc2cc(C(=O)Nc3cccc(C(C)(C)c4ccc(F)cc4)c3)oc12 [Example 113, N-(3-(2-(4-fluorophenyl)propan-2-yl)phenyl)-7-methoxy-5-(methylsulfonamido)benzofuran-2-carboxamide] | 8.9 µM | > 10 µM | 6.4 µM
CC(C)(c1cccc(CN2CCNCC2)c1)c1cc(Br)cc(NC(=O)c2cc3cc(NS(C)(=O)=O)ccc3s2)c1 [Example 118, N-(3-bromo-5-(2-(3-(piperazin-1-ylmethyl)phenyl)propan-2-yl)phenyl)-5-(methylsulfonamido) benzo[b]thiophene-2-carboxamide] | > 10 µM | > 10 µM | 8.6 µM
CC(C)(c1cccc(CN2CCNCC2)c1)c1cc(Br)cc(NC(=O)c2cc3ccc(NS(C)(=O)=O)cc3[nH]2)c1 [Example 119, N-(3-bromo-5-(2-(3-(piperazin-1-ylmethyl)phenyl)propan-2-yl)phenyl)-6-(methylsulfonamido)-1H-indole-2-carboxamide] | > 10 µM | > 10 µM | 6.1 µM
COc1cc2cc(C(=O)Nc3cccc(-c4ccc(F)cc4F)c3)[nH]c2cc1NS(C)(=O)=O [Example 236, N-(2′,4′-difluoro-[1,1′-biphenyl]-3-yl)-5-methoxy-6-(methylsulfonamido)-1H-indole-2-carboxamide] | 0.31 µM | 2.7 µM | 0.41 µM
O=C(Nc1cccc(-c2ccc(F)cc2F)c1)c1cc2cc(OC(F)(F)F)ccc2[nH]1 [Example 239, N-(2′,4′-difluoro-[1,1′-biphenyl]-3-yl)-5-(trifluoromethoxy)-1H-indole-2-carboxamide] | > 10 µM | 8.3 µM | > 10 µM
CS(=O)(=O)c1ccc2cc(C(=O)Nc3cccc(-c4ccc(F)cc4F)c3)[nH]c2c1 [Example 240, N-(2′,4′-difluoro-[1,1′-biphenyl]-3-yl)-6-(methylsulfonyl)-1H-indole-2-carboxamide] | > 10 µM | > 10 µM | > 10 µM
Cc1c(C(=O)Nc2cccc(-c3ccc(F)cc3F)c2)sc2cc(NS(C)(=O)=O)ccc12 [Example 241, N-(2′,4′-difluoro-[1,1′-biphenyl]-3-yl)-3-methyl-6-(methylsulfonamido)benzo[b]thiophene-2-carboxamide] | 1.8 µM | 5.4 µM | 2.7 µM
CS(=O)(=O)Nc1ccc2cc(C(=O)Nc3cccc(-c4ccc(F)cc4F)c3)sc2c1 [Example 242, N-(2′,4′-difluoro-[1,1′-biphenyl]-3-yl)-6-(methylsulfonamido)benzo[b]thiophene-2-carboxamide] | 0.96 µM | 4 µM | 0.54 µM

Now those with a lower IC50 (STAT3), led by results:

IC50 (STAT3) | IC50 (LNCaP) | IC50 (MDA-MB-231) | SMILES
0.082 µM | 0.13 µM | 0.029 µM | CC(C)(c1cc(Br)cc(NC(=O)c2cc3cc(NS(C)(=O)=O)ccc3s2)c1)c1cccc(OC(F)F)c1 [Example 46, N-(3-bromo-5-(2-(3-(difluoromethoxy)phenyl)propan-2-yl)phenyl)-5-(methylsulfonamido)benzo[b]thiophene-2-carboxamide]
0.008 µM | 0.031 µM | 0.006 µM | CC(C)(c1cc(Br)cc(NC(=O)c2cc3cc(NS(C)(=O)=O)ccc3s2)c1)c1cc(OC(F)(F)F)ccc1F [Example 47, N-(3-bromo-5-(2-(2-fluoro-5-(trifluoromethoxy)phenyl)propan-2-yl)phenyl)-5-(methylsulfonamido)benzo[b]thiophene-2-carboxamide]
0.026 µM | 0.07 µM | 0.022 µM | CCC(CC)(c1ccc(F)cc1)c1cc(Br)cc(NC(=O)c2cc3cc(NS(C)(=O)=O)ccc3s2)c1 [Example 53, N-(3-bromo-5-(3-(4-fluorophenyl)pentan-3-yl)phenyl)-5-(methylsulfonamido)benzo[b]thiophene-2-carboxamide]
0.16 µM | 0.54 µM | 0.081 µM | CCC(CC)(c1cc(NC(=O)c2cc3ccc(NS(C)(=O)=O)cc3[nH]2)cc(OC)c1)c1cc(OC)cc(OC(F)(F)F)c1 [Example 55, N-(3-methoxy-5-(3-(3-methoxy-5-(trifluoromethoxy)phenyl)pentan-3-yl)phenyl)-6-(methylsulfonamido)-1H-indole-2-carboxamide]
0.078 µM | 0.31 µM | 0.073 µM | C#Cc1cc(NC(=O)c2cc3cc(NS(C)(=O)=O)ccc3s2)cc(C(C)(C)c2ccc(F)cc2)c1 [Example 108, N-(3-ethynyl-5-(2-(4-fluorophenyl)propan-2-yl)phenyl)-5-(methylsulfonamido)benzo[b]thiophene-2-carboxamide]
0.078 µM | 0.42 µM | 0.09 µM | C#Cc1cc(NC(=O)c2cc3cc(NS(C)(=O)=O)ccc3s2)cc(C(C)(C)c2ccc(F)cc2F)c1 [Example 109, N-(3-(2-(2,4-difluorophenyl)propan-2-yl)-5-ethynylphenyl)-5-(methylsulfonamido)benzo[b]thiophene-2-carboxamide]
0.26 µM | 0.27 µM | 0.033 µM | CC(C)(c1cccc(C#N)c1)c1cccc(NC(=O)c2cc3cc(NS(C)(=O)=O)ccc3s2)c1 [Example 224, N-(3-(2-(3-cyanophenyl)propan-2-yl)phenyl)-5-(methylsulfonamido)benzo[b]thiophene-2-carboxamide]
0.11 µM | 0.61 µM | 0.01 µM | CS(=O)(=O)Nc1ccc2sc(C(=O)Nc3cccc(-c4ccc(F)cc4F)c3)cc2c1 [Example 237, N-(2′,4′-difluoro-[1,1′-biphenyl]-3-yl)-5-(methylsulfonamido)benzo[b]thiophene-2-carboxamide]
0.27 µM | 2.4 µM | 0.55 µM | CS(=O)(=O)Nc1ccc2oc(C(=O)Nc3cccc(-c4ccc(F)cc4F)c3)cc2c1 [Example 238, N-(2′,4′-difluoro-[1,1′-biphenyl]-3-yl)-5-(methylsulfonamido)benzofuran-2-carboxamide]
